# Experimental data as given in patent publication US10238685B2, “Compositions containing polymeric sulfur and uses thereof” (Johnson & Johnson Consumer Inc., priority 2015, dated 2019).
# Where two headings read alike, the source gives them in different places.
# Assays:
# Format in all cases: cell-based
# [1] = test system: IL-1α pro-inflammatory cytokine release; experiment: IL-1α cytokine release in human skin equivalents (EPI 200 HCF-PRF)
# Procedure: The potential to induce the pro-inflammatory cytokine release IL1-a by either the polymeric sulfur (Sn) and of regular sulfur (S) were evaluated in human skin equivalents. Human skin equivalents (EPI 200 HCF-PRF), multilayer and differentiated epidermis consisting of normal human epidermal keratinocytes, were purchased from MatTek (Ashland, Mass.). Upon receipt, skin equivalents were incubated for 24 hours at 37° C. in maintenance medium without hydrocortisone. Equivalents were topically treated (0.1%, 1% and 10%) with either polymeric sulfur (IS-90, Wuxi Wanli Chemical, China) or regular sulfur (S, Sigma-Aldrich, St Louis, Mo., USA) in 70% ethanol/30% propylene glycol vehicle, and compared to either vehicle alone used as negative control, or to the 10 mM SDS used as positive control. Equivalents were incubated for 48 hours at 37° C. with maintenance medium then supernatants were analyzed for IL-1α pro-inflammatory cytokine release using MILLIPLEX®MAP kit (Millipore Corp., Billerica, Mass.).
# IL-8 cytokine release = IL-8 cytokine release in normal human epidermal keratinocytes
# Procedure: The irritation/inflammatory/mildness potential of polymeric sulfur (Sn) and of regular sulfur (S) were evaluated in-vitro in human primary cell cultures. Normal human epidermal keratinocytes were purchased from Promocell (Heidelberg, Germany). The cells were plated in 24-well tissue culture treated plates at a density of 30,000 cells/well in Lonza KGM-Gold BulletKit without hydrocortisone (Lonza, Walkersville, Md., USA). After 48 hours, cells were treated with the actives described below: Polymeric form of sulfur (Wuxi Wanli Chemical, China) and the regular form of sulfur (Sigma-Aldrich, St Louis, Mo.) at indicated concentrations for 24 hours, following which supernatants were collected and analyzed for IL-8 and IL-1α cytokine release using MILLIPLEX®MAP kit (Millipore Corp., Billerica, Mass.).
# [2] = test system: IL-22-induced IL-8 cytokine release; experiment: IL-22-induced IL-8 cytokine release in normal human epidermal keratinocytes
# Procedure: The anti-inflammatory potential of polymeric sulfur (Sn) and of regular sulfur (S) were evaluated in-vitro in human primary epidermal cell cultures. Normal human epidermal keratinocytes were purchased from Promocell (Heidelberg, Germany). The cells were plated in 24-well tissue culture treated plates at a density of 30,000 cells/well in Lonza KGM-Gold Bullet Kit without hydrocortisone (Lonza, Walkersville, Md.). After 48 hours, cells were treated with the actives described below: Polymeric form of sulfur (IS-90, Wuxi Wanli Chemical, China) and the regular form of sulfur (Sigma-Aldrich, St Louis, Mo., USA) at indicated concentrations, either in the presence or absence of the pro-inflammatory cytokine IL-22 (R&D Systems, Minneapolis, Minn.) 20 ng/ml. Following the treatment period of 24 hrs, the cell culture media supernatants were collected and analyzed for IL-8 cytokine release using MILLIPLEX®MAP kit (Millipore Corp., Billerica, Mass.).
# [3] = test system: Escherichia coli ATCC 8739; experiment: Antimicrobial Efficacy Test - Microcentrifuge Tube Method, E. coli; details: for Log / cfu/ml / log reduction: 30 minute exposure
# Procedure: (§1) For efficacy studies against Propionibacterium acnes, Staphylococcus aureus, and Escherichia coli 1% test sample suspensions [Sulfur (S) Sigma or Polymeric Sulfur (Sn) IS90 from Wuxi Wanli Chemical, China] were prepared as w/v in Butterfield's Phosphate Buffer. Serial dilutions of 1:10 were performed v/v for lower concentrations. Aliquots were then pipetted into microcentrifuge tube for exposure to test organism. Concentrations of 10% and 5% for testing against Aspergillus brasiliensis were weighed and diluted directly in microcentrifuge tubes. Each test organism was standardized to concentration of 10E6 cfu/ml. Test sample was inoculated as 1:10 (0.1 ml inoculum to 0.9 ml sample) for final concentration of 10E5 cfu/ml sample. Buffer control sample was included and used to calculate log reduction for each test sample. After inoculation, study tubes were placed at 37° C. (±2° C.), shaking at 1000 rpm for set exposure time (30 minutes, 1 hour or 3 hours). At completion of exposure time, each tube was centrifuged for 10 seconds to settle test material out of suspension. Aliquot of fluid was removed, serial diluted and plated for recovery of viable organisms. Each organism was plated on appropriate media and incubated at proper temperature and length of time before counting recoveries.
# [4] = test system: Propionibacterium acnes ATCC 6919; experiment: Antimicrobial Efficacy Test - Microcentrifuge Tube Method, P. acnes; details: for Log / cfu/ml / log reduction: 30 minute exposure
# Procedure: as §1
# [5] = test system: Staphylococcus aureus ATCC 6538; experiment: Antimicrobial Efficacy Test - Microcentrifuge Tube Method, S. aureus; details: for Log / cfu/ml / log reduction: 60 minute exposure
# Procedure: as §1
# [6] = test system: Aspergillus brasiliensis ATCC 16404; experiment: Antimicrobial Efficacy Test - Microcentrifuge Tube Method, A. brasiliensis; details: for Log / cfu/ml / log reduction: 3 hour exposure
# Procedure: as §1
compound,measurement,setting,value
Polymeric Sulfur [Sn],stimulation of pro-inflammatory cytokine IL-1α (FIG. 2),[1],did not induce the production of IL-1α to the same extent
same,stimulation of pro-inflammatory cytokine IL-8 vs untreated control cells (FIG. 3),IL-8 cytokine release,showed significantly lower stimulation of the pro-inflammatory cytokine IL-8
"S1SSSSSSS1 [S, Sulfur]",IL-8 release vs untreated control cells in presence of IL-22 (FIG. 1),"[2]; 0.01% up to 3%, IL-22 20 ng/ml, 24 hrs",did induce significantly the stimulation of the pro-inflammatory cytokine IL-8
same,anti-inflammatory potential in human primary epidermal cells in vitro,"[2]; composition, measured per procedure of the Examples",greater than 220 pg/ml
same,Log,[3]; 0.001%,6.1
same,cfu/ml,[3]; 0.001%,1.3E+06 cfu/ml
same,log reduction,[3]; 0.001%,0.1
same,Log,[3]; 0.01%,6.1
same,cfu/ml,[3]; 0.01%,1.3E+06 cfu/ml
same,log reduction,[3]; 0.01%,0.1
same,Log,[3]; 0.1%,6.1
same,cfu/ml,[3]; 0.1%,1.4E+06 cfu/ml
same,log reduction,[3]; 0.1%,0.1
same,Log,[3]; 1% w/v,6.2
same,cfu/ml,[3]; 1% w/v,1.5E+06 cfu/ml
same,log reduction,[3]; 1% w/v,0.0
same,"antimicrobial efficacy, conclusion","[3]; at 0.1%, 0.01% or 0.001%",Neither form was efficacious
same,Log,[4]; 0.001%,5.3
same,cfu/ml,[4]; 0.001%,2.0E+05 cfu/ml
same,log reduction,[4]; 0.001%,0.1
same,Log,[4]; 0.01%,5.3
same,cfu/ml,[4]; 0.01%,1.9E+05 cfu/ml
same,log reduction,[4]; 0.01%,0.1
same,Log,[4]; 0.1%,5.3
same,cfu/ml,[4]; 0.1%,1.8E+05 cfu/ml
same,log reduction,[4]; 0.1%,0.1
same,Log,[4]; 1% w/v,5.2
same,cfu/ml,[4]; 1% w/v,1.6E+05 cfu/ml
same,log reduction,[4]; 1% w/v,0.2
same,"antimicrobial efficacy, conclusion",[4]; at 0.01% or 0.001%,Neither form was efficacious
same,stimulation of pro-inflammatory cytokine IL-1α (FIG. 2),"[1]; topical 0.1%, 1% and 10% in 70% ethanol/30% propylene glycol, 48 hours",did induce the stimulation of the pro-inflammatory cytokine IL-1α in a dose-dependent manner
same,Log,[5]; 0.001%,4.0
same,cfu/ml,[5]; 0.001%,9.1E+03 cfu/ml
same,log reduction,[5]; 0.001%,1.4
same,Log,[5]; 0.01%,4.0
same,cfu/ml,[5]; 0.01%,1.0E+04 cfu/ml
same,log reduction,[5]; 0.01%,1.4
same,Log,[5]; 0.1%,3.5
same,cfu/ml,[5]; 0.1%,3.0E+03 cfu/ml
same,log reduction,[5]; 0.1%,1.9
same,Log,[5]; 1% w/v,5.3
same,cfu/ml,[5]; 1% w/v,2.1E+05 cfu/ml
same,log reduction,[5]; 1% w/v,0.1
same,"antimicrobial efficacy, conclusion",[5]; at 0.1%,the forms were equivalent
same,Log,[6]; 0.1%,5.5
same,cfu/ml,[6]; 0.1%,3.2E+05 cfu/ml
same,log reduction,[6]; 0.1%,−0.1
same,Log,[6]; 1%,5.3
same,cfu/ml,[6]; 1%,2.0E+05 cfu/ml
same,log reduction,[6]; 1%,0.1
same,Log,[6]; 5%,5.5
same,cfu/ml,[6]; 5%,2.9E+05 cfu/ml
same,log reduction,[6]; 5%,−0.1
same,Log,[6]; 10%,5.4
same,cfu/ml,[6]; 10%,2.8E+05 cfu/ml
same,log reduction,[6]; 10%,0.0
same,"antimicrobial efficacy, conclusion",[6]; at 1% or 0.01%,Neither was efficacious
same,stimulation of pro-inflammatory cytokine IL-8 vs untreated control cells (FIG. 3),"IL-8 cytokine release; 0.01% up to 3%, 24 hours, no IL-22",did induce significantly the stimulation of the pro-inflammatory biomarker cytokine IL-8
